Patent US5081107A, “Polypeptide compounds” (Imperial Chemical Industries PLC, priority 1988, dated 1992)
Non-standard residues stand in square brackets, D forms with d. Residues, ends and D or L forms follow the SMILES beside them. *: point of attachment. Isonicotinoyl = O=C(c1ccncc1)*; Cbz = O=C(OCc1ccccc1)*

Assays:
[1] = system: mouse Swiss 3T3-fibroblast cells; assay type: cell-based; settings: 3 h
Procedure: (b) An in vitro assay which assesses the ability of a test compound to inhibit the Neuromedin C stimulated mitogenesis of mouse Swiss 3T3-fibroblast cells as determined by the uptake of [^3 H]-thymidine. The test is similar to those described by N. Corps., L. Rees and K. Brown, Biochem. Journal, 1985, 231, 781 and I. Zachary and E. Rozengurt, Proc. Nat. Acad. Sci. USA, 1985, 82, 7616, except that GRP (18-27) (0.2 or 0.4nM) was used to stimulate growth and the test compounds were dissolved in an assay medium containing 0.1% bovine serum albumin and 0.4% dimethylsulphoxide and […]

[2] = system: bombesin-induced stimulation of the secretion of the enzyme amylase; settings: rat, in vivo
Procedure: (c) An in vivo test involving the measurement of the antagonism of the bombesin-induced stimulation of the secretion of the enzyme amylase into the pancreatic duct of the rat by a test compound administered orally, sub-cutaneously or intravenously. Bombesin and the test compound can be administered concomitantly or the test compound can be predosed at any convenient interval, for example 30, 60, 90, 120, 150 or 180 minutes, before bombesin is dosed. Amylase was measured by analysis of the conversion of starch into maltose, on incubation of the starch/amylase mixture at 30° C. for 15 minutes, using a spectrophotometric assay as originally described by P. Bernfield in `Methods in Enzymology` Vol. I, p17 (Editors Colowick and Kaplan, Academic Press, New York, 1955). Bombesin (5 micrograms/kg, intravenously) causes a large, but submaximal, increase of amylase secretion within 30 minutes.

[3] = target: T1, bombesin receptor of mouse Swiss 3T3-fibroblast cells (Mus musculus, UniProt P21729); assay: Test (a): in vitro binding assay, displacement of [I125]GRP; settings: ambient temperature, 1 hour
T1 construct: the bombesin receptor of mouse Swiss 3T3-fibroblast cells; endogenous in cells; host or cells: mouse Swiss 3T3 fibroblast cells
Procedure: (a) An in vitro binding assay which assesses the ability of a test compound to displace radiolabelled gastrin releasing peptide ([I^125 ]GRP) from the bombesin receptor of mouse Swiss 3T3-fibroblast cells. The test is similar to that described by I. Zachary and E. Rozengurt, Proc. Nat. Acad. Sci. USA, 1985, 82, 7616, except that the cells are incubated at ambient temperature for 1 hour;

[4] = system: bombesin-induced hypothermia; settings: rat; cited from earlier work
[5] = system: guinea pig pancreatic acini; settings: cited from earlier work

T1 sequence (P21729 whole entry): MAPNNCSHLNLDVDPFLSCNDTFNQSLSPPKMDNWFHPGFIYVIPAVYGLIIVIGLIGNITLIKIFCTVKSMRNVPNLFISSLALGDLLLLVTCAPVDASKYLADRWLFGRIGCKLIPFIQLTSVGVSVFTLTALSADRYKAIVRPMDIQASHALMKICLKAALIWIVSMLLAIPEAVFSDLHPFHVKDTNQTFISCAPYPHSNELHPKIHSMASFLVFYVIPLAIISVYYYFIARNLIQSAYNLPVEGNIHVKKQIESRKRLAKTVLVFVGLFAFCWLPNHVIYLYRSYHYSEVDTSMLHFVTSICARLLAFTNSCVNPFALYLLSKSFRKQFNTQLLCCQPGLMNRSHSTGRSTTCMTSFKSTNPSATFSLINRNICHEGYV

| Molecule | IC50 [1] [nM] | IC50 in test (c) [2] [mg/kg] | inhibition of bombesin-stimulated secretion of amylase [5] | other results |
| --- | --- | --- | --- | --- |
| COC(=O)[C@H](CC(C)C)NC(=O)[C@H](Cc1c[nH]cn1)NC(=O)[C@@H](C)NC(=O)[C@@H](NC(=O)[C@H](C)NC(=O)[C@H](Cc1c[nH]c2ccccc12)NC(=O)[C@H](Cc1c[nH]cn1)NC(=O)c1ccncc1)C(C)C [4-Pyridyl--CO--His--Trp--Ala--Val--D--Ala--His--Leu--OMe] (Isonicotinoyl-HWAV[dA]HL-OMe) | 0.7 | < 0.5 | – | IC50 [3]: 1.5 nM |
| CNC(=O)[C@H](CC(C)C)NC(=O)[C@H](CCCCNC(=O)OCc1ccccc1)NC(=O)[C@@H](C)NC(=O)[C@@H](NC(=O)[C@H](C)NC(=O)[C@H](Cc1c[nH]c2ccccc12)NC(=O)[C@H](Cc1c[nH]cn1)NC(=O)c1ccncc1)C(C)C [4-Pyridyl-CO--His--Trp--Ala--Val--D-Ala--Lys(Z)--Leu--NHMe] (Isonicotinoyl-HWAV[dA]K(Cbz)L-NHMe) | 0.2 | < 0.02 | – | – |
| [D--Glp^7, D--Ala^11, Ala^14 ]bombesin (7-14) | – | – | – | antagonism of bombesin-induced hypothermia [4]: partial antagonist |
| [D--Phe^12, Leu^14 ]bombesin | – | – | inhibited | – |
| [D-Phe^12 ]bombesin | – | – | inhibited | – |
| [Tyr^4, D--Phe^12 ]bombesin | – | – | inhibited | – |
